# Data published in patent US20120190752A1, “EXO-S-MECAMYLAMINE METHOD, USE, AND COMPOUND FOR TREATMENT” (Targacept Inc., priority 2009, published 2012).
# System: subjects with major depressive disorder (MDD) who were inadequate responders to citalopram
# Test: Individual MADRS factor (subscale) scores, exploratory analysis
# Type: in vivo, human
# Method: In more detail, a multi-center double-blind, randomized, placebo-controlled, parallel group, flexible dose titration study of TC-5214 as adjunctive therapy in subjects with major depressive disorder (MDD) who were inadequate responders to citalopram was conducted in centers in the US and India. The study consisted of a screening period, baseline/washout period, open-label phase, double-blind phase, and a follow-up visit. Subject participation in the study could continue for up to 16 weeks of treatment. Following a washout period of up to 28 days for other antidepressants, subjects with MDD and a MADRS total score >/=28 and a Clinical Global Impression-Severity (CGI-S) score >/=4 were enrolled on Day 1 into an open-label citalopram-only phase of the study. This phase lasted 8 weeks, with citalopram (CIT) dose increased from a once-daily dose of 20 mg (Day 1 through Week 4) to 40 mg (Week 4 through Week 8). A total of 579 subjects entered the open-label citalopram phase. At Week 8, subjects who tolerated 40 mg CIT, but whose MADRS score was reduced <50% from baseline and no lower than 17, and CGI-S≧4, were considered inadequate responders. These subjects (n=270) were randomized in a double-blind fashion to receive either placebo or TC-5214-23 as add-on therapy to continued CIT. The double-blind phase of the study also lasted 8 weeks (Week 8 to Week 16). Study drug, TC-5214-23 or placebo, was started at 2 mg daily (1 mg twice per day [BID] dosing), added on to continuing CIT (40 mg PO qd). After 2 weeks of treatment, the dose of TC-5214 could be increased to 4 mg (2 mg BID) or continued unchanged, with up-titration based upon good tolerability and inadequate therapeutic response. After a further 2 weeks, the dose of TC-5214 could be increased again to 8 mg (4 mg BID) if judged appropriate by the investigator, based upon good tolerability and inadequate therapeutic response. At any time during the double-blind phase of the study, placebo or TC-5214-23 could be reduced to the previous dose level following the emergence of unacceptable adverse events (AEs). […] At this follow-up, any signs or symptoms of relapse were evaluated. If a subject was prematurely discontinued from the study between Week 8 and Week 16 for any reason, the investigator was to make every effort to perform all evaluations as per protocol, assuming the subject had reached the end of the double-blind add-on treatment phase. These evaluations were to be made as soon as possible and within 2 weeks of discontinuation. […] There was no meaningful difference in results as a function of age, gender, site, or smoking status. The exploratory analysis assessed the differences in the treatment groups in change from Week 8 (double-blind baseline) to Week 16 for each individual MADRS factor score.
# [1] = ITT population, Week 8 (double-blind baseline) to Week 16
structure (smiles),measurement,setting,value
"CNC1(C)C2CCC(C2)C1(C)C (stereo in doubt) [TC-5214, (S)—N,2,3,3-tetramethylnorbornan-2-amine]",MADRS item 1 Apparent Sadness: Adjusted Mean Change TC-5214—Placebo (SD),[1],−0.88 (1.26)
same,MADRS item 1 Apparent Sadness: Effect Size,[1],0.70
same,MADRS item 2 Reported Sadness: Adjusted Mean Change TC-5214—Placebo (SD),[1],−0.88 (1.28)
same,MADRS item 2 Reported Sadness: Effect Size,[1],0.69
same,MADRS item 3 Inner Tension: Adjusted Mean Change TC-5214—Placebo (SD),[1],−0.79 (1.13)
same,MADRS item 3 Inner Tension: Effect Size,[1],0.70
same,MADRS item 4 Reduced Sleep: Adjusted Mean Change TC-5214—Placebo (SD),[1],−0.99 (1.40)
same,MADRS item 4 Reduced Sleep: Effect Size,[1],0.71
same,MADRS item 5 Reduced Appetite: Adjusted Mean Change TC-5214—Placebo (SD),[1],−0.76 (1.30)
same,MADRS item 5 Reduced Appetite: Effect Size,[1],0.58
same,MADRS item 6 Concentration Difficulties: Adjusted Mean Change TC-5214—Placebo (SD),[1],−0.70 (1.20)
same,MADRS item 6 Concentration Difficulties: Effect Size,[1],0.58
same,MADRS item 7 Lassitude: Adjusted Mean Change TC-5214—Placebo (SD),[1],−0.75 (1.20)
same,MADRS item 7 Lassitude: Effect Size,[1],0.63
same,MADRS item 8 Inability to Feel: Adjusted Mean Change TC-5214—Placebo (SD),[1],−0.76 (1.25)
same,MADRS item 8 Inability to Feel: Effect Size,[1],0.61
same,MADRS item 9 Pessimistic Thoughts: Adjusted Mean Change TC-5214—Placebo (SD),[1],−0.74 (1.18)
same,MADRS item 9 Pessimistic Thoughts: Effect Size,[1],0.63
same,MADRS item 10 Suicidal Thoughts: Adjusted Mean Change TC-5214—Placebo (SD),[1],−0.29 (0.61)
same,MADRS item 10 Suicidal Thoughts: Effect Size,[1],0.48
same,each MADRS subscale score change from baseline compared with placebo,"ITT, result in words",statistically significant decreases (improvements)
